The text below walks through data of patent US20090124663A1, “Novel n-phenyl-piperidine derivatives and their use as monoamine neurotransmitter re-uptake inhibitors” (NeuroSearch A/S, priority 2005, published 2009).

The target in data set [1] is T1, reuptake of serotonine (5-HT) in synaptosomes (Rattus norvegicus, UniProt P31652).
T1 construct: in synaptosomes as described in WO 97/16451; from tissue
As to the kind of experiment: Inhibition of serotonin reuptake in synaptosomes. Type of data set: biochemical. As for the experimental part:
(§1) Compounds were tested for their ability to inhibit the reuptake of the monoamine neurotransmitters dopamine (DA) noradrenaline (NA) and serotonine (5-HT) in synaptosomes as described in WO 97/16451.
(§2) The test values are given as IC50 (the concentration (μM) of the test substance which inhibits the specific binding of ^3H-DA, ^3H-NA, or ^3H-5-HT by 50%).

For data set [2], the target named is T2, reuptake of noradrenaline (NA) in synaptosomes (Rattus norvegicus, UniProt Q9WTR4).
T2 construct: in synaptosomes as described in WO 97/16451; from tissue
As to the kind of experiment: Inhibition of noradrenaline reuptake in synaptosomes. Type of data set: biochemical. As to the method: as §1, §2

Data set [3] concerns the target T3, reuptake of dopamine (DA) in synaptosomes (Rattus norvegicus, UniProt P23977).
T3 construct: in synaptosomes as described in WO 97/16451; from tissue
Kind of data set: Inhibition of dopamine reuptake in synaptosomes. Type of data set: biochemical. As for the experimental part: as §1, §2

Structures can show the parent of a compound that is named as a salt.

T2 sequence (Q9WTR4 1-597): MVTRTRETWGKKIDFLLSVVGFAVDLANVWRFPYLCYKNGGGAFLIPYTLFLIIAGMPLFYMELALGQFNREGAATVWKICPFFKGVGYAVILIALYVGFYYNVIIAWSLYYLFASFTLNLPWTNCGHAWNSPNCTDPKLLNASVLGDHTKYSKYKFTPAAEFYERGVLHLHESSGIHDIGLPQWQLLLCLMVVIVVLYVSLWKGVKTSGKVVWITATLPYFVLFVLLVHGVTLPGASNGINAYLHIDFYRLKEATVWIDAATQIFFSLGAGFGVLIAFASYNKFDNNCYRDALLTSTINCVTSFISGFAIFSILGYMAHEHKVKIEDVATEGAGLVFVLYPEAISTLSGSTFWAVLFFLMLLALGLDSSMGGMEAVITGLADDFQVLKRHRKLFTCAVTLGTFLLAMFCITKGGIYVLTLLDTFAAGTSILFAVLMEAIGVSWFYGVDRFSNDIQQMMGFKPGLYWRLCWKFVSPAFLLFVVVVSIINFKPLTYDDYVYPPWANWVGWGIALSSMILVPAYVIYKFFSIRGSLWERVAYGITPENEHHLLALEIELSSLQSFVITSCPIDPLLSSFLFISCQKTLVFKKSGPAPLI
T3 sequence (P23977 whole entry): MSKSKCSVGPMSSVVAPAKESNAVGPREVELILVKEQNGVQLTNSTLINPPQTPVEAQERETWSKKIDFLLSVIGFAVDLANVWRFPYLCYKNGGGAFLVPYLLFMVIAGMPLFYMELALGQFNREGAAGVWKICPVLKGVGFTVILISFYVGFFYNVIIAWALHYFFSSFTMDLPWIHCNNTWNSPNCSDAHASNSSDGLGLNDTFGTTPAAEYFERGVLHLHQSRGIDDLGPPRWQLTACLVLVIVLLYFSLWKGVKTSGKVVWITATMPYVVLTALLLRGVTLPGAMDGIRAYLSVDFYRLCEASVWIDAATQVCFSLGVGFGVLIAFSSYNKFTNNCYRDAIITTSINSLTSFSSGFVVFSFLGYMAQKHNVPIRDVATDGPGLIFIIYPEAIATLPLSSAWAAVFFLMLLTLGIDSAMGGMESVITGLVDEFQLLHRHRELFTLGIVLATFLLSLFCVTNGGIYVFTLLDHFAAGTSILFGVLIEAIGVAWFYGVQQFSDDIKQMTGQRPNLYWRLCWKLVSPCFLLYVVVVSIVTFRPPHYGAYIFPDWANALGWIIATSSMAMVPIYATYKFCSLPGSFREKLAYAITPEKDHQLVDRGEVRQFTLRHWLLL
T1 sequence (P31652 whole entry): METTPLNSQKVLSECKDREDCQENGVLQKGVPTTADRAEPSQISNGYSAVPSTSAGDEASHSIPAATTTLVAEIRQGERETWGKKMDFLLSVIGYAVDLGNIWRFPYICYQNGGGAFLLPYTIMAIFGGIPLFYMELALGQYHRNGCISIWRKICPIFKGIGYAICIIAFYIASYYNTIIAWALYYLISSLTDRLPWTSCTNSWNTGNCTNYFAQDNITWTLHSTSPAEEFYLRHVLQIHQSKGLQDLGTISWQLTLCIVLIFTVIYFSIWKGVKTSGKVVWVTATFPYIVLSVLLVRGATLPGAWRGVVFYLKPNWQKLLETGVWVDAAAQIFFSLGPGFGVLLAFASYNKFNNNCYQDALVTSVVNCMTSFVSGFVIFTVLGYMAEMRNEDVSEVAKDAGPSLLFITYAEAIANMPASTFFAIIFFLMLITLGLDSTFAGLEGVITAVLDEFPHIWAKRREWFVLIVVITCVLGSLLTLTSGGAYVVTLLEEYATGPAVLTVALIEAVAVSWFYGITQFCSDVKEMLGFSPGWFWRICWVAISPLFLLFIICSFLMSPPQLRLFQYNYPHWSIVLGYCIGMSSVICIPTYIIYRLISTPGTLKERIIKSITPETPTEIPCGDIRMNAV

Take `NC1CCN(c2ccc(Cl)c(Cl)c2)CC1` (as salt: hydrochloric acid salt) [1st compound of method A, 1-(3,4-Dichloro-phenyl)-piperidin-4-ylamine]: the melting point is > 250 °C (dec.).
With `NC1CCN(c2ccc(Cl)c(Cl)c2)CC1` [1st compound of method A, 1-(3,4-Dichloro-phenyl)-piperidin-4-ylamine], the concentration for half-maximal inhibition (IC50) in data set [1] came out at 27 nM; in data set [2], 150 nM; in data set [3] it was 400 nM.
Regarding `CNC1CCN(c2ccc(Cl)c(Cl)c2)CC1` (as salt: hydrochloric acid salt) [1st compound of method B, [1-(3,4-Dichloro-phenyl)-piperidin-4-yl]-methyl-amine], the melting point was in the range of 240 to 244 °C.
For `CNC1CCN(c2ccc(Cl)c(Cl)c2)CC1` [1st compound of method B, [1-(3,4-Dichloro-phenyl)-piperidin-4-yl]-methyl-amine], the IC50 was determined as 27 nM in data set [1], 200 nM in data set [2] and 380 nM in data set [3].
